Test results reported in patent publication US10167262B2, “Herbicidal substituted 3-arylpyrazoles” (FMC CORPORATION, priority 2014, dated 2019).

test system: barnyardgrass (Echinochloa crus-galli); assay: Test A pre-/postemergence greenhouse herbicide test, visual injury rating 0-100; assay type: in vivo; details: Postemergence, 125 g ai/ha
Outline: (§1)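 Scale 0–100 (none to complete control), visual, versus untreated controls after approx. 10 greenhouse days. Pre: directed soil spray at planting. Post: 2–10 cm, one- to two-leaf plants. Non-phytotoxic solvent plus surfactant vehicle.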

Row | SMILES | Plant response rating (0 to 100 scale), Barnyardgrass
1 | ON=C(c1cccnc1)c1c[nH]nc1-c1cc(Cl)cc(Cl)c1 [Compound 5] | 0

same assay, conditions: Postemergence, 500 g ai/ha

Row | SMILES | Plant response rating (0 to 100 scale), Barnyardgrass
2 | ON=C(c1cccnc1)c1c[nH]nc1-c1cc(Cl)cc(Cl)c1 [Compound 5] | 0

same assay, conditions: Preemergence, 125 g ai/ha

Row | SMILES | Barnyardgrass plant response rating (0 = no effect, 100 = complete control)
3 | ON=C(c1cccnc1)c1c[nH]nc1-c1cc(Cl)cc(Cl)c1 [Compound 5] | 0

same assay, conditions: Preemergence, 500 g ai/ha

Row | SMILES | Plant response rating (0 to 100 scale), Barnyardgrass
4 | ON=C(c1cccnc1)c1c[nH]nc1-c1cc(Cl)cc(Cl)c1 [Compound 5] | 0

test system: corn (Zea mays); assay: as above; assay type: in vivo; details: Preemergence, 125 g ai/ha
Outline: as §1

Row | SMILES | Corn plant response rating (0 = no effect, 100 = complete control)
5 | ON=C(c1cccnc1)c1c[nH]nc1-c1cc(Cl)cc(Cl)c1 [Compound 5] | 0

same assay, conditions: Preemergence, 500 g ai/ha

Row | SMILES | Plant response rating (0 to 100 scale), Corn
6 | ON=C(c1cccnc1)c1c[nH]nc1-c1cc(Cl)cc(Cl)c1 [Compound 5] | 0

test system: giant foxtail (Setaria faberii); assay: as above; assay type: in vivo; details: Postemergence, 125 g ai/ha
Outline: as §1

Row | SMILES | Plant response rating (0 to 100 scale), Foxtail, Giant
7 | ON=C(c1cccnc1)c1c[nH]nc1-c1cc(Cl)cc(Cl)c1 [Compound 5] | 0

same assay, conditions: Postemergence, 500 g ai/ha

Row | SMILES | Plant response rating (0 to 100 scale), Foxtail, Giant
8 | ON=C(c1cccnc1)c1c[nH]nc1-c1cc(Cl)cc(Cl)c1 [Compound 5] | 0

same assay, conditions: Preemergence, 125 g ai/ha

Row | SMILES | Foxtail, Giant plant response rating (0 = no effect, 100 = complete control)
9 | ON=C(c1cccnc1)c1c[nH]nc1-c1cc(Cl)cc(Cl)c1 [Compound 5] | 0

same assay, conditions: Preemergence, 500 g ai/ha

Row | SMILES | Plant response rating (0 to 100 scale), Foxtail, Giant
10 | ON=C(c1cccnc1)c1c[nH]nc1-c1cc(Cl)cc(Cl)c1 [Compound 5] | 0

test system: large (Lg) crabgrass (Digitaria sanguinalis); assay: as above; assay type: in vivo; details: Postemergence, 125 g ai/ha
Outline: as §1

Row | SMILES | Plant response rating (0 to 100 scale), Crabgrass, Large
11 | ON=C(c1cccnc1)c1c[nH]nc1-c1cc(Cl)cc(Cl)c1 [Compound 5] | 0

same assay, conditions: Postemergence, 500 g ai/ha

Row | SMILES | Plant response rating (0 to 100 scale), Crabgrass, Large
12 | ON=C(c1cccnc1)c1c[nH]nc1-c1cc(Cl)cc(Cl)c1 [Compound 5] | 0

same assay, conditions: Preemergence, 125 g ai/ha

Row | SMILES | Crabgrass, Large plant response rating (0 = no effect, 100 = complete control)
13 | ON=C(c1cccnc1)c1c[nH]nc1-c1cc(Cl)cc(Cl)c1 [Compound 5] | 0

same assay, conditions: Preemergence, 500 g ai/ha

Row | SMILES | Plant response rating (0 to 100 scale), Crabgrass, Large
14 | ON=C(c1cccnc1)c1c[nH]nc1-c1cc(Cl)cc(Cl)c1 [Compound 5] | 0

test system: morningglory (Ipomoea spp.); assay: as above; assay type: in vivo; details: Postemergence, 125 g ai/ha
Outline: as §1

Row | SMILES | Plant response rating (0 to 100 scale), Morningglory
15 | ON=C(c1cccnc1)c1c[nH]nc1-c1cc(Cl)cc(Cl)c1 [Compound 5] | 0

same assay, conditions: Postemergence, 500 g ai/ha

Row | SMILES | Plant response rating (0 to 100 scale), Morningglory
16 | ON=C(c1cccnc1)c1c[nH]nc1-c1cc(Cl)cc(Cl)c1 [Compound 5] | 0

same assay, conditions: Preemergence, 125 g ai/ha

Row | SMILES | Morningglory plant response rating (0 = no effect, 100 = complete control)
17 | ON=C(c1cccnc1)c1c[nH]nc1-c1cc(Cl)cc(Cl)c1 [Compound 5] | 0

same assay, conditions: Preemergence, 500 g ai/ha

Row | SMILES | Plant response rating (0 to 100 scale), Morningglory
18 | ON=C(c1cccnc1)c1c[nH]nc1-c1cc(Cl)cc(Cl)c1 [Compound 5] | 0

test system: pigweed (Amaranthus retroflexus); assay: as above; assay type: in vivo; details: Postemergence, 125 g ai/ha
Outline: as §1

Row | SMILES | Plant response rating (0 to 100 scale), Pigweed
19 | ON=C(c1cccnc1)c1c[nH]nc1-c1cc(Cl)cc(Cl)c1 [Compound 5] | 0

same assay, conditions: Postemergence, 500 g ai/ha

Row | SMILES | Plant response rating (0 to 100 scale), Pigweed
20 | ON=C(c1cccnc1)c1c[nH]nc1-c1cc(Cl)cc(Cl)c1 [Compound 5] | 0

same assay, conditions: Preemergence, 125 g ai/ha

Row | SMILES | Pigweed plant response rating (0 = no effect, 100 = complete control)
21 | ON=C(c1cccnc1)c1c[nH]nc1-c1cc(Cl)cc(Cl)c1 [Compound 5] | 0

same assay, conditions: Preemergence, 500 g ai/ha

Row | SMILES | Plant response rating (0 to 100 scale), Pigweed
22 | ON=C(c1cccnc1)c1c[nH]nc1-c1cc(Cl)cc(Cl)c1 [Compound 5] | 20

test system: velvetleaf (Abutilon theophrasti); assay: as above; assay type: in vivo; details: Postemergence, 125 g ai/ha
Outline: as §1

Row | SMILES | Plant response rating (0 to 100 scale), Velvetleaf
23 | ON=C(c1cccnc1)c1c[nH]nc1-c1cc(Cl)cc(Cl)c1 [Compound 5] | 0

same assay, conditions: Postemergence, 500 g ai/ha

Row | SMILES | Plant response rating (0 to 100 scale), Velvetleaf
24 | ON=C(c1cccnc1)c1c[nH]nc1-c1cc(Cl)cc(Cl)c1 [Compound 5] | 0

same assay, conditions: Preemergence, 125 g ai/ha

Row | SMILES | Velvetleaf plant response rating (0 = no effect, 100 = complete control)
25 | ON=C(c1cccnc1)c1c[nH]nc1-c1cc(Cl)cc(Cl)c1 [Compound 5] | 0

same assay, conditions: Preemergence, 500 g ai/ha

Row | SMILES | Plant response rating (0 to 100 scale), Velvetleaf
26 | ON=C(c1cccnc1)c1c[nH]nc1-c1cc(Cl)cc(Cl)c1 [Compound 5] | 0

test system: wheat (Triticum aestivum); assay: as above; assay type: in vivo; details: Postemergence, 125 g ai/ha
Outline: as §1

Row | SMILES | Plant response rating (0 to 100 scale), Wheat
27 | ON=C(c1cccnc1)c1c[nH]nc1-c1cc(Cl)cc(Cl)c1 [Compound 5] | 0

same assay, conditions: Postemergence, 500 g ai/ha

Row | SMILES | Plant response rating (0 to 100 scale), Wheat
28 | ON=C(c1cccnc1)c1c[nH]nc1-c1cc(Cl)cc(Cl)c1 [Compound 5] | 0

same assay, conditions: Preemergence, 125 g ai/ha

Row | SMILES | Wheat plant response rating (0 = no effect, 100 = complete control)
29 | ON=C(c1cccnc1)c1c[nH]nc1-c1cc(Cl)cc(Cl)c1 [Compound 5] | 0

same assay, conditions: Preemergence, 500 g ai/ha

Row | SMILES | Plant response rating (0 to 100 scale), Wheat
30 | ON=C(c1cccnc1)c1c[nH]nc1-c1cc(Cl)cc(Cl)c1 [Compound 5] | 0

test system: barnyardgrass (Echinochloa crus-galli); assay: Test B flooded paddy test, plant response rating 0-100; assay type: in vivo; details: Flood, 250 g ai/ha; scale 0 to 100 (0 no effect, 100 complete control); 13 to 15 days
Outline: (§2)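 Under a constant 3 cm flood, test compounds went directly into the paddy water. Following 13 to 15 days of greenhouse growth, treated species and controls were compared by eye.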

Row | SMILES | Plant response rating, Barnyardgrass
31 | ON=C(c1cccnc1)c1c[nH]nc1-c1cc(Cl)cc(Cl)c1 [Compound 5] | 0

test system: ducksalad (Heteranthera limosa); assay: as above; assay type: in vivo; details: Flood, 250 g ai/ha; scale 0 to 100 (0 no effect, 100 complete control); 13 to 15 days
Outline: as §2

Row | SMILES | Plant response rating, Ducksalad
32 | ON=C(c1cccnc1)c1c[nH]nc1-c1cc(Cl)cc(Cl)c1 [Compound 5] | 0

test system: rice (Oryza sativa); assay: as above; assay type: in vivo; details: Flood, 250 g ai/ha; scale 0 to 100 (0 no effect, 100 complete control); 13 to 15 days
Outline: as §2

Row | SMILES | Plant response rating, Rice
33 | ON=C(c1cccnc1)c1c[nH]nc1-c1cc(Cl)cc(Cl)c1 [Compound 5] | 0

test system: sedge, umbrella (small-flower umbrella sedge, Cyperus difformis); assay: as above; assay type: in vivo; details: Flood, 250 g ai/ha; scale 0 to 100 (0 no effect, 100 complete control); 13 to 15 days
Outline: as §2

Row | SMILES | Plant response rating, Sedge, Umbrella
34 | ON=C(c1cccnc1)c1c[nH]nc1-c1cc(Cl)cc(Cl)c1 [Compound 5] | 0
